In patent US10358405B2, “Myricanol derivatives and uses thereof for treatment of neurodegenerative diseases” (UNIVERSITY OF SOUTH FLORIDA, priority 2012, dated 2019):

Legend:
tau [1] = assay: Tau level reduction in HeLa cells stably transfected with tau treated with myricanol derivatives; format: cell-based; settings: for reduction of levels of tau proteins: summary statement
Procedure: To assess the effects of the aqueous bayberry extract on overexpressed and endogenous tau levels, HeLa cells stably transfected with tau were treated with the myricanol derivatives.

tau [2] = assay: Tau-reducing-guided fractionation study of Myrica cerifera (tau destabilizer activity); format: cell-based; settings: read-out: IC50 as tau destabilizer agent
Procedure: The bayberry root-bark powder (5×1 kg) was extracted with 5×2 L of toluene under agitation in a (5×) flask protected from light (3×24 h). The filtrate was concentrated and gave 58 g of extract. The toluene extract was purified using silica gel MPLC, eluting with a gradient of 0 to 40% ethyl acetate/hexanes to yield 27 g of (+)-aR,11S-myricanol [α]D^21=48.2 (c=1.1, Chloroform).

[3] = HeLa cells stably transfected with tau
[4] = Table 1, tau-reducing activity, result in words

Molecule	Results (tau [1]; [3])	Results (tau [1]; [4])	IC50 (tau [2]) [µM]	tau-reducing activity, dose-dependent bioassay (tau [1]; concentration of 20 μg/mL)	reduction of levels of tau proteins (tau [1])	reduction of protein tau levels, time-dependent bioassay (tau [1]; treatment of HeLa cells for 24 hours)
COc1c2cc(c(O)c1OC)CCC/C=C\CCc1ccc(O)c-2c1 [Compound 21, Myricacene A (cis)]	moderately active	moderately active	–	–	–	–
COc1c2cc(c(O)c1OC)CCC/C=C/CCc1ccc(O)c-2c1 [Compound 18, Myricacene A (trans)]	active	active	–	–	–	–
COc1c2cc(c(O)c1OC)CCCC[C@H](O)CCc1ccc(O)c-2c1 [Compound 1, Myricanol]	–	moderate activity	35	–	–	–
Demethoxycurcumin [Compound 9]	active	active	–	–	–	–
CCCCCCCCC[C@H](O)CC(=O)CCc1ccc(O)c(OC)c1 [Compound 11, [10]-Gingerol]	active	Active	–	–	–	–
COc1c2cc(c(O)c1OC)CCCC/C=C\Cc1ccc(O)c-2c1 [Compound 22, Myricacene B (cis)]	active	active	–	potent tau-reducing compound	potently reduce levels of tau proteins	–
COc1c2cc(c(O)c1OC)CCCC/C=C/Cc1ccc(O)c-2c1 [Compound 19, Myricacene B (trans)]	active	active	–	–	–	–
O=C(/C=C/c1ccc(O)cc1)CC(=O)/C=C/c1ccc(O)cc1 [Compound 10, Bisdemethoxycurcumin]	active	active	–	–	–	–
COc1c2cc(c(O)c1OC)CCCCC1CCc3ccc(O)c-2c31 (stereo not drawn) [Compound 24]	active	active	–	–	–	–
COc1cc2c(c(O)c1OC)CCCC1CCCc3ccc(O)c-2c31 (stereo not drawn) [Compound 23]	very active	very active	–	–	potently reduce levels of tau proteins	potently reduces protein tau levels
